Test results reported in US7285528B2, “Agonists and antagonists of gonadotropin-releasing hormone-2, and use thereof” (priority 2002, dated 2007).
Where a SMILES comes first, the peptide text is derived from it. [ ]: non-standard residue; d: D form. dPhe(4-Cl) = N[C@H](Cc1ccc(Cl)cc1)C(=O)O; d2Nal = N[C@H](Cc1ccc2ccccc2c1)C(=O)O; dCit = NC(=O)NCCC[C@@H](N)C(=O)O; d3Pal = N[C@H](Cc1cccnc1)C(=O)O; pGlu = O=C1CC[C@@H](C(=O)O)N1

Columns and labels:
Primate GnRH-2 receptor [1] = assay: c-fos-luc luciferase activation by agonists, CV-1 cells expressing Primate GnRH-2 receptor; assay type: cell-based, Primates; conditions: for Log EC50: log of EC50 (negative values), luciferase activation, average of three independent experiments
Method: Complimentary DNA (cDNA) for a Primate GnRH-2 receptor was obtained from a CV-1 cell genome. […] Plasmids having Primate GnRH-2 receptors where transfected into CV-1 cells. To assay the activity of the receptor, c-fos-luc where a luciferase gene is fused with a c-fos promoter was co-transfected as a probe gene. After 48 hours from transfection, the cells were treated with GnRH-2 agonists and then the activity of luciferase was assayed (Seong et al., Endocrinology vol 144 2003, 454-466). […] Of the GnRH-2 receptors, [[…]]GnRH-2 performed excellently, showing effects about 3 times that of a wild-type ligand, GnRH-2. […] When analogs where the 5th, 7th, and 8th amino acids of [[…]]GnRH-2 are substituted were used, it was observed that their effects were weaker than [[…]]GnRH-2, and therefore it can be seen that it is important to maintain His, Trp, and Tyr that are found at the 5th, 7th, and 8th positions of GnRH-2 as they are (FIG. 3b). Log EC50 values and Emax values of GnRH-2 agonists are average values of experiments that were conducted independently three times. Ratio^a represents the ratio of EC50 values of other GnRH analogs based on EC50 values of GnRH-2.

Primate GnRH-2 receptor [2] = assay: Inhibition of GnRH-2-induced c-fos-luc luciferase activity, cells expressing Primate GnRH-2 receptor; assay type: cell-based, Primates; conditions: for effect on luciferase activity induced by GnRH-2: GnRH-2 and antagonist treated at the same time
Method: Complimentary DNA (cDNA) for a Primate GnRH-2 receptor was obtained from a CV-1 cell genome. […] Plasmids having Primate GnRH-2 receptors where transfected into CV-1 cells. To assay the activity of the receptor, c-fos-luc where a luciferase gene is fused with a c-fos promoter was co-transfected as a probe gene. After 48 hours from transfection, the cells were treated with GnRH-2 agonists and then the activity of luciferase was assayed (Seong et al., Endocrinology vol 144 2003, 454-466). In the same manner as in 2-3 above, Primate GnRH-2 receptors were co-transfected along with c-fos-luc reporter genes, and after 48 hours, GnRH-2 and GnRH-2 antagonists were treated thereinto at the same time and then the effect of GnRH-2 antagonists was observed. […] Log IC50 value by antagonists is an average value of experiments that were conducted independently three times. ND stands for “not detected” which means that there are no inhibitory functions.

bfGnRHR-3 [3] = assay: Ligand-receptor binding assay, I125-GnRH-2 competition, membranes of GH3 cells expressing bfGnRHR-3; design: species or system bullfrog; conditions: log of IC50 (negative values); competition with I125-GnRH-2, 4° C., 16 hours
Method: To determine the binding affinity between GnRH and GnRH receptors, GnRH-2 was radiolabeled with I^125. The GH3 cells expressing bfGnRHR-1, bfGnRHR-2, bfGnRHR-3, and rat GnRHR constructed in Example 2-3 above were cultured on 100-mm dishes. After 48 hours, the cells were homogenized to obtain cellular membranes, which were then dissolved in binding buffer (40 mM Tris, pH 7.4, 2 mM MgCl2). 20 μg of membrane proteins were reacted with I^125-GnRH-2 at 4° C. for 16 hours. […] After the reaction was completed, 1^125-GnRH-2 bound to the receptors was filtered using a Brandel harvester, and cpm was measured using a γ-counter.
The GH3 cells expressing bfGnRHR-3 obtained from Example 6-1 above were treated with l^125GnRH-2 and GnRH-2 agonists and antagonists at various concentrations to determine the binding affinity of GnRH-2 agonists and antagonists toward the receptors.

bfGnRHR-3 [4] = assay: Inhibition of GnRH-2-induced IP production, GH3 cells expressing bfGnRHR-3; assay type: cell-based, bullfrog; conditions: log of IC50 (negative values); half-maximal inhibition of IP production induced by GnRH-2 (1 nM, 10 nM elsewhere in the source)
Method: (§1) GH3 cell lines were obtained from the Cell Line Bank at the Cancer Research Center, Seoul National University College of Medicine, located in Seoul, Republic of Korea. The GH3 cell lines were infected with retroviruses comprising genes encoding bfGnRHR-1, bfGnRHR-2, and bfGnRHR-3 which are bullfrog GnRH receptors, and rat GnRHR, and cell lines expressing each of these receptors were obtained. The GH3 cells expressing bfGnRHR-1, bfGnRHR-2, bfGnRHR-3, and rat GnRHR were cultured on 12-well plates. After 24 hours, the cells were cultured again for 24 hours in a media containing no inositol, to which H^3-myoinositol was added. The resultant cells were washed with buffer A (140 mM NaCl, 20 mM HEPES, 4 mM KCl, 8 mM D-Glucose, 1 mM MgCl2, 1 mM CaCl2, 1 mg/ml BSA) and then cultured in buffer A containing 10 mM LiCl at 37°C. for 30 minutes. Thereafter, they were treated with GnRH having a suitable concentration, cultured at 37° C. for another 30 minutes, and then the media was eliminated. The cells were treated with 10 mM of ice-cold formic acid to terminate the reaction, and the cell extracts were mixed with Dowex anionic exchange resins. These resins were washed with distilled water, IP was extracted with 1 M ammonium formate/0.1 M formic acid, and cpm (count per minute) was determined.

bfGnRHR-2 = assay: Inhibition of GnRH-2-induced IP production, GH3 cells expressing bfGnRHR-2; assay type: cell-based, bullfrog; conditions: log of IC50 (negative values); half-maximal inhibition of IP production induced by GnRH-2 (1 nM, 10 nM elsewhere in the source)
Method: as §1

Molecule	Log EC50 (Primate GnRH-2 receptor [1])	effect on luciferase activity induced by GnRH-2 (Primate GnRH-2 receptor [2])	further results
pGlu-His-Trp-Ser-His-D-Ala-Tyr-Trp-Pro-Gly-NH2 ([pGlu]HWSH[dA]YWPG-NH2; SMILES C[C@@H](NC(=O)[C@H](Cc1c[nH]cn1)NC(=O)[C@H](CO)NC(=O)[C@H](Cc1c[nH]c2ccccc12)NC(=O)[C@H](Cc1c[nH]cn1)NC(=O)[C@@H]1CCC(=O)N1)C(=O)N[C@@H](Cc1ccc(O)cc1)C(=O)N[C@@H](Cc1c[nH]c2ccccc12)C(=O)N1CCC[C@H]1C(=O)NCC(N)=O) [[D-Ala^6, Tyr^7, Trp^8]GnRH-2]	−7.57 ± 0.13	–	–
CC(=O)N[C@H](Cc1ccc2ccccc2c1)C(=O)N[C@H](Cc1ccc(Cl)cc1)C(=O)N[C@H](Cc1cccnc1)C(=O)N[C@@H](CO)C(=O)N[C@@H](Cc1c[nH]cn1)C(=O)N[C@H](CCCNC(N)=O)C(=O)N[C@@H](Cc1c[nH]c2ccccc12)C(=O)N[C@@H](Cc1ccc(O)cc1)C(=O)N1CCC[C@H]1C(=O)N[C@H](C)C(N)=O [Trptorelix-2, Ac-D2Nal-(4Cl)D-Phe-D-3Pal-Ser-His-DCit-Trp-Tyr-Pro-DAla-NH2] (Ac-[d2Nal][dPhe(4-Cl)][d3Pal]SH[dCit]WYP[dA]-NH2)	–	reduced in a concentration-dependent manner	Log IC50 (Primate GnRH-2 receptor [2]; log of IC50 (negative values), reporter c-fos-luc, GnRH-2-induced luciferase, average of three experiments, ND = not detected, no inhibitory functions): −6.19 ± 0.12
[D-Ala^6]GnRH-1: the agonist of GnRH-1	−6.38 ± 0.10	–	effect / sensitivity in luciferase activation (Primate GnRH-2 receptor [1]; compared with GnRH-2 or [D-Ala^6]GnRH-2): very low sensitivity as compared with GnRH-2
pGlu-His-Trp-Ser-Tyr-D-Ala-Trp-Leu-Pro-Gly-NH2 ([pGlu]HWSY[dA]WLPG-NH2; SMILES CC(C)C[C@H](NC(=O)[C@H](Cc1c[nH]c2ccccc12)NC(=O)[C@@H](C)NC(=O)[C@H](Cc1ccc(O)cc1)NC(=O)[C@H](CO)NC(=O)[C@H](Cc1c[nH]c2ccccc12)NC(=O)[C@H](Cc1c[nH]cn1)NC(=O)[C@@H]1CCC(=O)N1)C(=O)N1CCC[C@H]1C(=O)NCC(N)=O) [[Tyr^5, D-Ala^6, Leu^8]GnRH-2]	−7.90 ± 0.24	–	–
p-Glu-His-Trp-Ser-His-D-Lys-Trp-Tyr-Pro-Gly-NH2 ([pGlu]HWSH[dK]WYPG-NH2; SMILES NCCCC[C@@H](NC(=O)[C@H](Cc1c[nH]cn1)NC(=O)[C@H](CO)NC(=O)[C@H](Cc1c[nH]c2ccccc12)NC(=O)[C@H](Cc1c[nH]cn1)NC(=O)[C@@H]1CCC(=O)N1)C(=O)N[C@@H](Cc1c[nH]c2ccccc12)C(=O)N[C@@H](Cc1ccc(O)cc1)C(=O)N1CCC[C@H]1C(=O)NCC(N)=O) [[D-Lys^6]GnRH-2]	−8.57 ± 0.11	–	–
pGlu-His-Trp-Ser-Leu-D-Ala-Trp-Tyr-Pro-Gly-NH2 ([pGlu]HWSL[dA]WYPG-NH2; SMILES CC(C)C[C@H](NC(=O)[C@H](CO)NC(=O)[C@H](Cc1c[nH]c2ccccc12)NC(=O)[C@H](Cc1c[nH]cn1)NC(=O)[C@@H]1CCC(=O)N1)C(=O)N[C@H](C)C(=O)N[C@@H](Cc1c[nH]c2ccccc12)C(=O)N[C@@H](Cc1ccc(O)cc1)C(=O)N1CCC[C@H]1C(=O)NCC(N)=O) [[Leu^5, D-Ala^6]GnRH-2]	−7.35 ± 0.12	–	–
Ac-D2Nal-(4Cl)D-Phe-D-3Pal-Ser-Tyr-DCit-Trp-Leu-Pro-DAla-NH2 (Ac-[d2Nal][dPhe(4-Cl)][d3Pal]SY[dCit]WLP[dA]-NH2; SMILES CC(=O)N[C@H](Cc1ccc2ccccc2c1)C(=O)N[C@H](Cc1ccc(Cl)cc1)C(=O)N[C@H](Cc1cccnc1)C(=O)N[C@@H](CO)C(=O)N[C@@H](Cc1ccc(O)cc1)C(=O)N[C@H](CCCNC(N)=O)C(=O)N[C@@H](Cc1c[nH]c2ccccc12)C(=O)N[C@@H](CC(C)C)C(=O)N1CCC[C@H]1C(=O)N[C@H](C)C(N)=O) [Trptorelix-3]	–	no effect	–
CC(=O)N[C@H](Cc1ccc2ccccc2c1)C(=O)N[C@H](Cc1ccc(Cl)cc1)C(=O)N[C@H](Cc1cccnc1)C(=O)N[C@@H](CO)C(=O)N[C@@H](Cc1ccc(O)cc1)C(=O)N[C@H](CCCNC(N)=O)C(=O)N[C@@H](CC(C)C)C(=O)N[C@@H](CCCNC(=N)N)C(=O)N1CCC[C@H]1C(=O)N[C@H](C)C(N)=O [Cetrorelix, Ac-D-2Nal-(4Cl)-D-Phe-D-3Pal-Ser-Tyr-D-Cit-Leu-Arg-Pro-D-Ala-NH2, reference compound] (Ac-[d2Nal][dPhe(4-Cl)][d3Pal]SY[dCit]LRP[dA]-NH2)	–	no effect	Binding affinity (log IC50 value) (bfGnRHR-3 [3]): −7.11 ± 0.08; Log IC50 (bfGnRHR-3 [4]): −6.28 ± 0.13; Log IC50 (bfGnRHR-2): −6.43 ± 0.11
pGlu-His-Trp-Ser-His-D-Ala-Leu-Tyr-Pro-Gly-NH2 ([pGlu]HWSH[dA]LYPG-NH2; SMILES CC(C)C[C@H](NC(=O)[C@@H](C)NC(=O)[C@H](Cc1c[nH]cn1)NC(=O)[C@H](CO)NC(=O)[C@H](Cc1c[nH]c2ccccc12)NC(=O)[C@H](Cc1c[nH]cn1)NC(=O)[C@@H]1CCC(=O)N1)C(=O)N[C@@H](Cc1ccc(O)cc1)C(=O)N1CCC[C@H]1C(=O)NCC(N)=O) [[D-Ala^6, Leu^7]GnRH-2]	−7.95 ± 0.10	–	–
